Reference: article PMC10735184, “Attractant and repellent induce opposing changes in the four-helix bundle ligand-binding domain of a bacterial chemoreceptor” (PLOS Biology, 2023)

Experiments:
[1] = target: T1, MCP2201 (Comamonas thiooxydans, UniProt A0ABF7PFR0, T108A); test: ITC; format: binding
T1 construct: gene CtCNB1_2201; MCP2201-LBD (residues 58–203), isolated periplasmic domain

[2] = target: T2, MCP2201 (Comamonas thiooxydans, UniProt A0ABF7PFR0); test: ITC; crystal structure at […] Å; analytical ultracentrifugation; format: binding
T2 construct: gene CtCNB1_2201; MCP2201-LBD (residues 58–203), N-terminal His6-tag
T2 sequence (A0ABF7PFR0 58-203): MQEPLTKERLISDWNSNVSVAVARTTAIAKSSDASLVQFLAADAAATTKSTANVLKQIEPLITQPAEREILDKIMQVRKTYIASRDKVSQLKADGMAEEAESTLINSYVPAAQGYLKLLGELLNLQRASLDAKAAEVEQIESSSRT

O=C(O)C[C@H](O)C(=O)O [L-malate] showed a Kd [1] of 995 ± 438 µM and a Kd [2] of 18.8 ± 7.45 µM.
